Several values for one entry are separate records, joined by “and”; a condition that tells them apart may be missing. Equal values may be shown once.

One series addresses hCA I (Homo sapiens, UniProt P00915). The experiment in a line: hCA I inhibition, stopped-flow assay. To be noted: stopped-flow technique; mean from three different assays, errors ±5–10%. In kind it is biochemical.
The target of a further series is hCA II (Homo sapiens, UniProt P00918). The experiment in a line: hCA II inhibition, stopped-flow assay. Type of series: biochemical. To be noted: stopped-flow technique; mean from three different assays, errors ±5–10%.
A further series addresses hCA XII (Homo sapiens, UniProt O43570). In words: hCA XII inhibition, stopped-flow assay. Type of series: biochemical. The following applies: for Selectivity Analysis hCA II/XII / Selectivity Analysis hCA I/XII: selectivity index (SI); for Selectivity Analysis hCA II/XII: ratio of Ki hCA II to Ki hCA XII; for Selectivity Analysis hCA I/XII: ratio of Ki hCA I to Ki hCA XII; for Ki: stopped-flow technique, mean from three different assays, errors ±5–10%.

The target in another series is hCA IX (Homo sapiens, UniProt Q16790). The experiment in a line: hCA IX inhibition, stopped-flow assay. Type of series: biochemical. The following applies: for Selectivity Analysis hCA I/IX / Selectivity Analysis hCA II/IX: selectivity index (SI); for Selectivity Analysis hCA I/IX: ratio of Ki hCA I to Ki hCA IX; for Selectivity Analysis hCA II/IX: ratio of Ki hCA II to Ki hCA IX; for Ki: stopped-flow technique, mean from three different assays, errors ±5–10%.

hCA I, sequence (P00915 whole entry): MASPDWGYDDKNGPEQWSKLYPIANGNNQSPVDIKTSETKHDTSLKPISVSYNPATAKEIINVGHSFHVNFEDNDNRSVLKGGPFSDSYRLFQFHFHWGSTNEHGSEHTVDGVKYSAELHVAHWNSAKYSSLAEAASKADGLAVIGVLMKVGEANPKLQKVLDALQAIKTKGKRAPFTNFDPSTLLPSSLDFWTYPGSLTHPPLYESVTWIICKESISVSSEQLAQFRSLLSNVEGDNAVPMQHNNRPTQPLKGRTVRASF
hCA XII, sequence (O43570 25-354): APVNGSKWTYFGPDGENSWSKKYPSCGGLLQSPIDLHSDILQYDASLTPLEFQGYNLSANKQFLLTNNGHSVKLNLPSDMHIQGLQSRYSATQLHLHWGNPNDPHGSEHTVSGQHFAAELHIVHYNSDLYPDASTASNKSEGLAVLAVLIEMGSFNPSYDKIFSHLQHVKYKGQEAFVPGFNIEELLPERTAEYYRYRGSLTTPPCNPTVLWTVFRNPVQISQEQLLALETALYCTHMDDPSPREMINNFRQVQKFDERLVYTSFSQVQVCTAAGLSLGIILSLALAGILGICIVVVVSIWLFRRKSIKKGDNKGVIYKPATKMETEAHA

A word on the Ki: it is a measure of affinity in units of concentration, obtained from inhibition or displacement. The low end stands for tighter binding, the high end for weaker binding. In the case of `NS(=O)(=O)c1ccc(CCn2c(S)nc3ccccc3c2=O)cc1` [Compound 1, 4-(2-(2-mercapto-4-oxoquinazolin-3(4H)-yl)ethyl)benzenesulfonamide], the values for the Ki on hCA I and at hCA II were 31.5 nM and 0.62 nM, respectively.

As a reminder, the melting point is the temperature, or range, at which the solid turns liquid. Regarding `CCOC(=O)CSc1nc2ccccc2c(=O)n1CCc1ccc(S(N)(=O)=O)cc1` [Compound 2, Ethyl 2-((4-oxo-3-(4-sulfamoylphenethyl)-3,4-dihydroquinazolin-2-yl)thio)acetate], the melting point was in the range of 210 to 211 °C. In addition, the inhibitory constant (Ki) on hCA II is 16.9 to 21.3 nM. Moreover, the “Selectivity Analysis hCA II/XII” value at hCA XII is 0.61.

As for `NNC(=O)CSc1nc2ccccc2c(=O)n1CCc1ccc(S(N)(=O)=O)cc1` [Compound 3, 4-(2-(2-((2-Hydrazineyl-2-oxoethyl)thio)-4-oxoquinazolin-3(4H)-yl)ethyl)benzenesulfonamide], the melting point was 253 to 254 °C. The molecule also came in with a Ki at hCA I of 87.6 nM. Besides, at hCA IX, the “Selectivity Analysis hCA I/IX” value is reported as 1.68, the “Selectivity Analysis hCA II/IX” value is 0.32 and affinity was put at a Ki of 52.1 nM. The molecule also registered a Ki on hCA II of 16.9 nM. Besides, at hCA XII, the “Selectivity Analysis hCA I/XII” value came to 16.22; the “Selectivity Analysis hCA II/XII” value stood at 3.12; the affinity, expressed as Ki, was 5.4 nM.

Consider `NS(=O)(=O)c1ccc(CCn2c(SCC(=O)N/N=C/c3ccccc3)nc3ccccc3c2=O)cc1` [Compound 4, 4-(2-(2-((2-(2-Benzylidenehydrazineyl)-2-oxoethyl)thio)-4-oxoquinazolin-3(4H)-yl)ethyl)benzenesulfonamide], for which the melting point lay in the range of 296 to 298 °C. This molecule displayed a Ki at hCA I of 152 nM. Moreover, at hCA IX, the Ki was 61.7 nM. The molecule also returned a Ki on hCA II of 52.6 nM. On hCA XII, this molecule gave a Ki of 38.4 nM.

`NS(=O)(=O)c1ccc(CCn2c(SCC(=O)NN=Cc3ccccc3Cl)nc3ccccc3c2=O)cc1` [Compound 5, 4-(2-(2-((2-(2-(2-Chlorobenzylidene)hydrazineyl)-2-oxoethyl)thio)-4-oxoquinazolin-3(4H)-yl)ethyl)benzenesulfonamide] displayed a melting point of 288 to 290 °C. The molecule also gave a Ki at hCA I of 940 nM. At hCA IX, the “Selectivity Analysis hCA I/IX” value is given as 35.6, the “Selectivity Analysis hCA II/IX” value is given as 9.51 and affinity was put at a Ki of 26.4 nM. The molecule also came in with a Ki at hCA II of 251 nM. Besides, at hCA XII, the “Selectivity Analysis hCA I/XII” value came to 20.39, the “Selectivity Analysis hCA II/XII” value amounted to 5.45 and affinity was put at a Ki of 46.1 nM.

In turn, `NS(=O)(=O)c1ccc(CCn2c(SCC(=O)NN=Cc3ccc(Cl)cc3)nc3ccccc3c2=O)cc1` [Compound 6, 4-(2-(2-((2-(2-(4-Chlorobenzylidene)hydrazineyl)-2-oxoethyl)thio)-4-oxoquinazolin-3(4H)-yl)ethyl)benzenesulfonamide] yielded a melting point of 288 to 289 °C. This molecule had a Ki at hCA I of 568 nM. For the same molecule, at hCA IX, the “Selectivity Analysis hCA I/IX” value turned out to be 6.37; the “Selectivity Analysis hCA II/IX” value is reported as 1.42; the Ki was 88.6 nM and 89.1 nM. On hCA II, this molecule returned a Ki of 127 nM. For the same molecule, at hCA XII, the “Selectivity Analysis hCA I/XII” value is 8.37, the “Selectivity Analysis hCA II/XII” value was found to be 1.87 and affinity was put at a Ki of 67.8 nM.

In turn, `NS(=O)(=O)c1ccc(CCn2c(SCC(=O)NN=Cc3ccc(Cl)cc3Cl)nc3ccccc3c2=O)cc1` [Compound 7, 4-(2-(2-((2-(2-(2,4-Dichlorobenzylidene)hydrazineyl)-2-oxoethyl)thio)-4-oxoquinazolin-3(4H)-yl)ethyl)benzenesulfonamide] registered a melting point of 304 to 305 °C. Affinity on hCA I was put at a Ki of 2350 nM. At hCA IX, the “Selectivity Analysis hCA I/IX” value was determined as 107, the “Selectivity Analysis hCA II/IX” value was found to be 19.67 and the Ki turned out to be 22 nM. For the same molecule, the Ki on hCA II worked out at 433 nM. At hCA XII, the “Selectivity Analysis hCA I/XII” value is listed as 26.33, the “Selectivity Analysis hCA II/XII” value is listed as 4.84 and the Ki is 89.4 nM.

In the case of `NS(=O)(=O)c1ccc(CCn2c(SCC(=O)NN=Cc3ccc(Cl)c(Cl)c3)nc3ccccc3c2=O)cc1` [Compound 8, 4-(2-(2-((2-(2-(3,4-Dichlorobenzylidene)hydrazineyl)-2-oxoethyl)thio)-4-oxoquinazolin-3(4H)-yl)ethyl)benzenesulfonamide], the melting point fell in the range of 271 to 272 °C. The molecule also returned a Ki on hCA I of 1830 nM. Moreover, at hCA IX, the “Selectivity Analysis hCA I/IX” value came to 52.5, the “Selectivity Analysis hCA II/IX” value turned out to be 9.33 and the Ki was found to be 34.8 nM. Moreover, on hCA II, the Ki was 325 nM. Besides, at hCA XII, the “Selectivity Analysis hCA I/XII” value is on record as 28.81, the “Selectivity Analysis hCA II/XII” value is reported as 5.12 and the Ki worked out at 63.4 nM.

Turning to `NS(=O)(=O)c1ccc(CCn2c(SCC(=O)NN=Cc3c(Cl)cccc3Cl)nc3ccccc3c2=O)cc1` [Compound 9, 4-(2-(2-((2-(2-(2,6-Dichlorobenzylidene)hydrazineyl)-2-oxoethyl)thio)-4-oxoquinazolin-3(4H)-yl)ethyl)benzenesulfonamide], the melting point lay in the range of 296 to 297 °C. On hCA I, this molecule returned a Ki of 2260 nM. At hCA IX, the “Selectivity Analysis hCA I/IX” value was found to be 45.85, the “Selectivity Analysis hCA II/IX” value turned out to be 3.35 and the Ki is 49.2 nM. For the same molecule, the Ki at hCA II came to 165 nM. Also, at hCA XII, the “Selectivity Analysis hCA I/XII” value was 40.35, the “Selectivity Analysis hCA II/XII” value amounted to 2.95 and the inhibition constant (Ki) came to 55.9 nM.

`NS(=O)(=O)c1ccc(CCn2c(SCC(=O)NN=Cc3ccccc3F)nc3ccccc3c2=O)cc1` [Compound 10, 4-(2-(2-((2-(2-(2-Fluorobenzylidene)hydrazineyl)-2-oxoethyl)thio)-4-oxoquinazolin-3(4H)-yl)ethyl)benzenesulfonamide] showed a melting point of 276 to 277 °C. Besides, at hCA I, the Ki was 274 nM. At hCA IX, the “Selectivity Analysis hCA I/IX” value was found to be 13.91, the “Selectivity Analysis hCA II/IX” value is 1.81 and the Ki came out at 19.7 nM. This molecule had an inhibition constant (Ki) on hCA II of 35.8 nM. Besides, on hCA XII, the “Selectivity Analysis hCA I/XII” value is on record as 11.96, the “Selectivity Analysis hCA II/XII” value is given as 1.56 and the Ki is 22.9 nM.

Molecule `NS(=O)(=O)c1ccc(CCn2c(SCC(=O)NN=Cc3ccc(F)cc3)nc3ccccc3c2=O)cc1` [Compound 11, 4-(2-(2-((2-(2-(4-Fluorobenzylidene)hydrazineyl)-2-oxoethyl)thio)-4-oxoquinazolin-3(4H)-yl)ethyl)benzenesulfonamide] registered a melting point of 292 to 293 °C. Besides, at hCA I, the affinity corresponds to a Ki of 132 nM. Further, on hCA IX, the “Selectivity Analysis hCA I/IX” value stood at 8.57, the “Selectivity Analysis hCA II/IX” value is listed as 3.21 and the Ki worked out at 15.4 nM. Besides, the Ki on hCA II is 49.5 nM. Further, on hCA XII, the “Selectivity Analysis hCA I/XII” value was found to be 8.35, the “Selectivity Analysis hCA II/XII” value is recorded as 3.13 and the Ki turned out to be 15.8 nM.

`Cc1ccccc1C=NNC(=O)CSc1nc2ccccc2c(=O)n1CCc1ccc(S(N)(=O)=O)cc1` [Compound 12, 4-(2-(2-((2-(2-(2-Methylbenzylidene)hydrazineyl)-2-oxoethyl)thio)-4-oxoquinazolin-3(4H)-yl)ethyl)benzenesulfonamide] displayed a melting point of 239 to 240 °C. Besides, the Ki at hCA I turned out to be 338 nM. In addition, at hCA IX, the “Selectivity Analysis hCA I/IX” value is 11.41; the “Selectivity Analysis hCA II/IX” value is 2.34; the affinity, expressed as Ki, was 29.6 nM. The same molecule had a Ki on hCA II of 69.4 nM. In addition, at hCA XII, the “Selectivity Analysis hCA I/XII” value came out at 5.31, the “Selectivity Analysis hCA II/XII” value came out at 1.09 and the affinity corresponds to a Ki of 63.5 nM.

As to `NS(=O)(=O)c1ccc(CCn2c(SCC(=O)NN=Cc3ccccc3[N+](=O)[O-])nc3ccccc3c2=O)cc1` [Compound 13, 4-(2-(2-((2-(2-(2-Nitrobenzylidene)hydrazineyl)-2-oxoethyl)thio)-4-oxoquinazolin-3(4H)-yl)ethyl)benzenesulfonamide], the melting point lay in the range of 288 to 289 °C. In addition, affinity at hCA I was put at a Ki of 992 nM. On hCA IX, the “Selectivity Analysis hCA I/IX” value is given as 16.95, the “Selectivity Analysis hCA II/IX” value was found to be 9.73 and the Ki worked out at 58.5 nM. Besides, the Ki at hCA II is 569 nM. Moreover, on hCA XII, the “Selectivity Analysis hCA I/XII” value was found to be 46.34, the “Selectivity Analysis hCA II/XII” value was 26.60 and the Ki came to 21.4 nM.

As to `NS(=O)(=O)c1ccc(CCn2c(SCC(=O)NN=Cc3ccc([N+](=O)[O-])cc3)nc3ccccc3c2=O)cc1` [Compound 14, 4-(2-(2-((2-(2-(4-Nitrobenzylidene)hydrazineyl)-2-oxoethyl)thio)-4-oxoquinazolin-3(4H)-yl)ethyl)benzenesulfonamide], the melting point fell in the range of 296 to 297 °C. The same molecule returned a Ki on hCA I of 635 nM. Moreover, on hCA IX, the “Selectivity Analysis hCA I/IX” value is reported as 23.62, the “Selectivity Analysis hCA II/IX” value amounted to 8.20 and the Ki turned out to be 26.9 nM. The molecule also showed a Ki at hCA II of 221 nM. Also, on hCA XII, the “Selectivity Analysis hCA I/XII” value worked out at 20.83, the “Selectivity Analysis hCA II/XII” value is given as 7.23 and the Ki amounted to 30.5 nM.

In turn, `CC(=NNC(=O)CSc1nc2ccccc2c(=O)n1CCc1ccc(S(N)(=O)=O)cc1)c1cccnc1` [Compound 27, 4-(2-(4-Oxo-2-((2-oxo-2-(2-(1-(pyridin-3-yl)ethylidene)hydrazineyl)ethyl)thio)quinazolin-3(4H)-yl)ethyl)benzenesulfonamide] came in with a Ki on hCA I of 238 nM. Moreover, on hCA IX, the “Selectivity Analysis hCA I/IX” value worked out at 7.07; the “Selectivity Analysis hCA II/IX” value is 0.32; the affinity, expressed as Ki, was 33.7 nM. The molecule further displayed a Ki on hCA II of 10.8 nM. Also, at hCA XII, the “Selectivity Analysis hCA I/XII” value is 6.87, the “Selectivity Analysis hCA II/XII” value amounted to 0.31 and affinity was put at a Ki of 34.7 nM.

For the origin of these results see publication PMC9697198, “Carbonic Anhydrase Inhibition Activities of Schiff’s Bases Based on Quinazoline-Linked Benzenesulfonamide” (Molecules, 2022).
